Experiment: Evaluation of the plasma half-life for Hydrochlorothiazide for at least 24 hours following administration of Hydrochlorothiazide
Assay type: ADME, organism-based
Settings: human; dosed compound id 30, dosed compound name HYDROCHLOROTHIAZIDE, tissue Plasma

half-life: 5.6 to 14.8 h
Structure (SMILES): NS(=O)(=O)c1cc2c(cc1Cl)NCNS2(=O)=O [HYDROCHLOROTHIAZIDE]

Source: ChEMBL document CHEMBL3832055, “DailyMed|setid=e57a1fb3-1bf5-4562-982c-52a6f5fb36ed | HYDROCHLOROTHIAZIDE - hydrochlorothiazide tablet | Aphena Pharma Solutions - Tenness ee, LLC”
